{
  "source": "patent US9408839B2",
  "about": "“Antipsychotic treatment based on DRD2 or ANKK1 SNP genotype” (Vanda Pharmaceuticals, Inc., priority 2009, dated 2016)",
  "key": {"schizophrenic patients": {"system": "schizophrenic patients", "conditions": "cited from earlier work; for time to respond to antipsychotics, -141C Del allele carriers versus -141C Ins allele carriers: rs1799732 SNP; for time to respond to antipsychotics, -141C Del allele carriers versus -141C Ins allele carriers / improvement on treatment, C/C genotype versus non-C/C genotype: schizophrenic patients; for improvement on treatment, C/C genotype versus non-C/C genotype: rs6275 SNP"}, "[1]": {"system": "patients with an acute exacerbation of schizophrenia", "assay": "Phase III clinical trial of iloperidone, change from baseline in PANSS-T by DRD2/ANKK1 SNP genotype", "format": "in vivo, human", "conditions": "iloperidone 24 mg/d; for PANSS-T mean change: day 14, white patients; for mean change in PANSS-T: day 14, white subpopulation", "experimental": "The clinical trial evaluated the efficacy of iloperidone in treating patients with diagnosed schizophrenia. The study, its results, and the inferences drawn therefrom are described below.\nA four-week, randomized, double-blind, placebo- and ziprasidone-controlled, multicenter inpatient phase III clinical trial of iloperidone was conducted, including 409 individuals, to assess the efficacy of iloperidone, as measured by changes in the Positive and Negative Syndrome Scale Total (PANSS-T).\nPatients, all diagnosed with an acute exacerbation of schizophrenia, were randomly assigned to one of three groups. A first group (n=218) received 24 mg/d (12 mg bid) of iloperidone, a second group (n=103) received 160 mg/d (80 mg bid) ziprasidone, and a third group (n=105) received a placebo. Efficacy was measured by a change from baseline in PANSS-T score."}},
  "data": [
    {"compound": "CN(C)CCCN1c2ccccc2Sc2ccc(Cl)cc21", "note": "[chlorpromazine]", "values": [
      {"measurement": "time to respond to antipsychotics, -141C Del allele carriers versus -141C Ins allele carriers", "setting": "schizophrenic patients", "result": "significantly longer time to respond"}
    ]},
    {"compound": "O=C(CCCN1CCC(O)(c2ccc(Cl)cc2)CC1)c1ccc(F)cc1", "note": "[haloperidol]", "values": [
      {"measurement": "improvement on treatment, C/C genotype versus non-C/C genotype", "setting": "schizophrenic patients", "result": "greater improvement"}
    ]},
    {"compound": "COc1cc(C(C)=O)ccc1OCCCN1CCC(c2noc3cc(F)ccc23)CC1", "note": "[iloperidone, 1-[4-[3-[4-(6-flouro-1,2-benzisoxazol-3-yl)-1-piperidinyl]propoxy]-3-methoxyphenyl]ethanone]", "values": [
      {"measurement": "PANSS-T mean change", "setting": "[1]; rs2283265 G/T genotype", "result": "−2.4 (±3.0)"},
      {"measurement": "PANSS-T mean change", "setting": "[1]; rs2283265 non-G/T genotype", "result": "−11.8 (±2.0)"},
      {"measurement": "mean change in PANSS-T", "setting": "[1]; rs1800497 (Taq1A) A1/A2 patients", "result": "−2.1 (±2.7)"},
      {"measurement": "mean change in PANSS-T", "setting": "[1]; rs1800497 (Taq1A) non-A1/A2 patients", "result": "−12.7 (±2.1)"}
    ]},
    {"compound": "Cc1nc2n(c(=O)c1CCN1CCC(c3noc4cc(F)ccc34)CC1)CCCC2", "note": "[risperidol]", "values": [
      {"measurement": "improvement on treatment, C/C genotype versus non-C/C genotype", "setting": "schizophrenic patients", "result": "greater improvement"}
    ]},
    {"compound": "Cc1nc2n(c(=O)c1CCN1CCC(c3noc4cc(F)ccc34)CC1)CCCC2", "note": "[risperidone]", "values": [
      {"measurement": "time to respond to antipsychotics, -141C Del allele carriers versus -141C Ins allele carriers", "setting": "schizophrenic patients", "result": "significantly longer time to respond"},
      {"measurement": "response to treatment, -241A allele carriers versus -241G allele carriers", "setting": "schizophrenic patients; rs1799978 SNP, some patients", "result": "greater response"}
    ]}
  ]
}
